Data set [1] has as its system NCI-H1792. The data set can be described thus: Antiproliferative activity against human NCI-H1792 cells harboring KRAS G12C mutant assessed as reduction in cell viability at 2.5 uM incubated for 72 hrs by MTT assay. In kind it is functional, cell-based. (Tetrazolium dyes change colour on reduction, which living cells bring about.)
Data set [2] relates to GTPase KRas (Homo sapiens), P01116 [G12C]. The data set can be described thus: Reversible binding affinity to GDP-bound human KRAS-4B G12C mutant (1 to 169 residues) expressed in Escherichia coli BL21 Rosetta cells by intact LCMS analysis.
For another data set, the species on record is Homo sapiens. As to the kind of experiment: Inhibition of GDP-bound human KRAS 149stop G12C mutant expressed in Escherichia coli BL21 Rosetta cells assessed as inhibition of EDTA mediated nucleotide exchange at 250 uM measured after 24 hrs by fluorescence based analysis.
A further data set has as its system PANC-1. The data set can be described thus: Antiproliferative activity against human PANC-1 cells harboring heterozygous KRAS G12D mutant assessed as inhibition of cell growth incubated for 72 hrs by MTT assay. It counts as functional, cell-based. The conditions noted are these: PANC-1, 72 h.
Data set [3] in a line: Cytotoxicity against HUVEC cells immortalized with TERT assessed as inhibition of cell growth incubated for 72 hrs by MTT assay. It counts as toxicity, cell-based. The conditions noted are these: human.
The test system of data set [4] is GTPase KRas (Homo sapiens), P01116 [G12C]. As to the kind of experiment: Binding affinity to Cys118 residue of GDP bound human KRAS-4B G12C mutant (1 to 169 residues) expressed in Escherichia coli BL21 Rosetta cells at 150 to 500 uM measured after 96 hrs by 1H-15N HSQC NMR spectral analysis. The conditions noted are these: dose 150-500 µM.
The test system of data set [5] is NCI-H1792. The data set can be described thus: Antiproliferative activity against human NCI-H1792 cells harboring heterozygous KRAS G12C mutant assessed as inhibition of cell growth incubated for 72 hrs by MTT assay. In kind it is functional, cell-based. The conditions noted are these: NCI-H1792, 72 h.
For data set [6], the system named is NCI-H1792. The data set can be described thus: Antitumor activity against human NCI-H1792 cells harboring KRAS G12C mutant xenografted in immunodeficient NOD-SCID mouse assessed as reduction in tumor growth at 5 to 30 mg/kg, ip administered for 5 times at 5 mg/kg in first week followed by administration at 20 mg/kg 5 times in second week and further administered 30 mg/kg 3 times in third week measured 17 days post treatment initiation and 35 days post tumor transplantation by digital caliper based analysis relative to control. In kind it is functional. Further details: scale not given: the % may be the effect or the level left. The conditions noted are these: dose 5-30 mg/kg, time 17 day. Background: In xenograft studies the graft and the host belong to different species.

Calls of active or inactive are those of the source. No cut-off for these calls is given here.

Experimental findings from ChEMBL document CHEMBL5335777 (Eur J Med Chem, 2023) are described below.

Broadly, the IC50 is the concentration that inhibits the measured activity by half.

Regarding `O=Cc1c(O)ccc2ccccc12`, the outcome (with NCI-H1792 [1]; in data set [2]) was Active. For the same molecule, in the data set filed under Homo sapiens, the inhibition result was “Active”. For the same molecule, the IC50 is 27.6 µM with PANC-1 and 11.4 µM in the data set on NCI-H1792 [5]. In data set [3], the half-maximal inhibitory concentration (IC50) at 72 h amounted to 10.8 µM. The outcome in data set [4] was inactive. Besides, in the data set on NCI-H1792 [6], the Activity worked out at 32.5%.
